Experimental data published in patent publication US11236122B2, “Triterpene amine derivatives” (DFH THERAPEUTICS, priority 2018, dated 2022).
Counter-ions that a name gives are not always drawn.

Columns and labels:
Format in all cases: cell-based
HIV-1 clade C K3016 = assay: CA-SP1 accumulation assay (immunoblot), clade C K3016
Experimental: Compound evaluation was performed against a panel of HIV-1 Clade C isolates K3016, pindieC1, and ZM247. The three isolates all contain the SP1-A7V. Clade B NL4-3 was included as the […] control.
Plasmids, tissue culture and transfections. HIV-1 clade B molecular clone NL4-3 and cade C clones K3016, ZM247 were obtained from Dr. Christina Ochsenbauer, University of Alabama, USA. Both K3016 and ZM247 were constructed using viral strains from South Africa. The HIV-1 clade C molecular clone pindieC1 was obtained from Dr. Uday Ranga, JNCASR, India. This clone was constructed using an HIV strain from India. HEK-293T and TZM-bl cells were propagated in Dulbecco's modified Eagle's medium (DM4EM) containing 10% fetal bovine serum (FBS). HUT-R5 cells were propagated in RPM 1640 medium supplemented with 10% FBS. For transfections, HEK-293T cells were grown in six well plates to about 80% confluency. Cells were transfected using Lipofectamine 2000 (invitrogen, USA) following manufacturer's recommendations. For viral replication assays, HUT-R5 T-cells were transfected using DEAE dextran as described in Waheed, A. A., Ono, A., and Freed, E. O.; Methods for the study of HIV-1 assembly; Methods Mol. Biol. Clifton N.J. 485, 163-184 (2009).
Preparation of viral stocks. Virus stocks were prepared by transfecting HEK-293T cells with HIV-1 DNAs (3 μg). 24 h post-transfection, the culture medium was replaced with fresh DMEM and incubated for another 2 h. Compounds tested were maintained in the culture throughout transfection. The culture supernatant was centrifuged at 845×g for 3 min to remove cellular debris. The clarified supernatants were filtered (pore size 0.45 µm filter disc) to remove residual cellular contaminants. For determination of viral infectivity, the un-concentrated virus was used to infect TZM-bl cells. For the CA-SP1 accumulation assay, the virus was pelleted by ultra-centrifugation at 210,100×g for 1 h at 4° C. using SW41Ti rotor (Beckman Coulter, USA).
CA-SP1 accumulation assay. To measure accumulation of CA-SP1, immunoblot analysis of virus-associated proteins was performed. The virus pellet was resuspended in radioimmunoprecipitation assay (RIPA) buffer (50 mM Tris-HCl pH 8.0, 150 mM sodium chloride, 1.0% NP-40, 0.5% sodium deoxycholate, 0.1% SDS) containing 1×protease inhibitor cocktail (Roche, Germany). The viral lysates were subjected to SDS-polyacrylamide gel electrophoresis (15% gel). Proteins were transferred to polyvinylidene difluoride membranes and reacted with HIV-IgG obtained from the NIH AIDS Reagent Program (catalog no. 3957) followed by incubation with HRP-conjugated anti-human secondary antibodies (GE Healthcare, UK). The proteins were visualized by enhanced chemiluminescence (Pierce, USA) and the bands were quantified using ImageJ software (http://imagej.nih.gov/ij/).

in vitro = conditions: human
Experimental: (§1) Human PBMC Preparation. Fresh human PBMCs were isolated from screened donors, seronegative for HIV and HBV (Biological Specialty Corporation, Colmar, Pa.). Cells were pelleted/washed 2-3 times by low speed centrifugation and resuspension in Dulbecco's phosphate buffered saline (PBS) to remove contaminating platelets. The leukophoresed blood was then diluted 1:1 with PBS and layered over 14 mL of Ficoll-Hypaque density gradient (Lymphocyte Separation Medium, Cell Grow #85-072-CL, density 1.078+/−0.002 g/mL) in a 50 mL centrifuge tube and then centrifuged for 30 min at 600×g. Banded PBMCs were gently aspirated from the resulting interface and subsequently washed twice with PBS by low speed centrifugation. After the final wash, cells were enumerated by trypan blue exclusion and re-suspended at 1×10^6 cells/mL in RPMI 1640 supplemented with 15% Fetal Bovine Serum (FBS), 2 mM L-glutamine, 100 U/mL penicillin, […] streptomycin, and 4 μg/mL Phytohemagglutinin (PHA; Sigma, St. Louis, Mo.; cat #L1668). The cells were allowed to incubate for 48-72 h at 37° C. After incubation, PBMCs were centrifuged and resuspended in RPMI 1640 with 15% FBS, L-glutamine, penicillin, streptomycin, non-essential amino acids (MEM/NEAA; Hyclone; cat #SH30238.01), and 20 U/mL recombinant human IL-2 (R&D Systems Inc., Minneapolis, Minn.; cat #202IL). PBMCs were maintained in this medium at a concentration of 1-2×10^6 cells/mL, with twice-weekly medium changes until they were used in the assay protocol. Monocytes-derived-macrophages were depleted from the culture as the result of adherence to the tissue culture flask.
(§2) PBMC Assay. For the standard PBMC assay, PHA stimulated cells from at least two normal donors were pooled (mixed together), diluted in fresh medium to a final concentration of 1×10^6 cells/mL, and plated in the interior wells of a 96 well round bottom microplate at 50 μL/well (5×10^4 cells/well) in a standard formate developed by the Infectious Disease Research Department of the SRI. Pooling (mixing) of mononuclear cells from more than one donor was used to minimize the variability observed between individual donors, which results from quantitative and qualitative differences in HIV infection and overall response to the PHA and IL-2 of primary lymphocyte populations. Each plate contains virus control wells (cells plus virus) and experimental wells (drug plus cells plus virus). Test drug dilutions were prepared at a 2× concentration in microtiter tubes and 100 μL of each concentration was placed in appropriate wells using the standard format. 50 μL of a predetermined dilution of virus stock was placed in each test well (final MOI≈0.1). Separate plates were prepared identically without virus for drug cytotoxicity studies using an MTS assay system (described below; cytotoxicity plates also include compound control wells containing drug plus media without cells to control for colored compounds that affect the MTS assay). The PBMC cultures were maintained for seven days following infection at 37° C., 5% CO2. After this period, cell-free supernatant samples were collected for analysis of reverse transcriptase activity, and compound cytotoxicity was measured by addition of MTS to the separate cytotoxicity plates for determination of cell viability. Wells were also examined microscopically and any abnormalities were noted.
(§3) MTS Staining for PBMC Viability to Measure Cytotoxicity. At assay termination, the uninfected assay plates were stained with the soluble tetrazolium-based dye MTS (CellTiter 96 Reagent, Promega) to determine cell viability and quantify compound toxicity. MTS is metabolized by the mitochondria enzymes of metabolically active cells to yield a soluble formazan product, allowing the rapid quantitative analysis of cell viability and compound cytotoxicity. […] At termination of the assay, […] of MTS reagent was added per well and the microtiter plates were then incubated at 37° C., 5% CO2 to assess cell viability. […]

human PBMCs = assay: in vitro; conditions: 7 days
Experimental: as §1, §2, §3

SMILES	% CA-SP1 Accumulation K3016 10 nM (HIV-1 clade C K3016) [%]	% CA-SP1 Accumulation K3016 100 nM (HIV-1 clade C K3016) [%]	CC50 at 7 days (in vitro) [nM]	CC50 (human PBMCs) [nM]
C=C(C)[C@@H]1CC[C@]2(CCNCCN3CCS(=O)(=O)CC3)CC[C@]3(C)[C@H](CC[C@@H]4[C@@]5(C)CC[C@H](OC(=O)CC(C)(C)C(=O)O)C(C)(C)[C@@H]5CC[C@]43C)[C@@H]12 [Compound 51ee, (3β)-17-[[[2-[2-(1,1-Dioxothiomorpholin-4-yl)]Ethyl]Amino]Ethyl]-28-norlup-20(29)-en-3-ol, 3-(1-Hydrogen 2,2-Dimethylbutanedioate)]	53.8	66.4	> 1000	> 1000
C=C(C)[C@@H]1CC[C@]2(CCNC3CCN(CCO)CC3)CC[C@]3(C)[C@H](CC[C@@H]4[C@@]5(C)CC[C@H](OC(=O)CC(C)(C)CC(=O)O)C(C)(C)[C@@H]5CC[C@]43C)[C@@H]12 [Compound 51f, (3β)-17-[2-[[1-(2-Hydroxyethyl)piperidin-4-yl]amino]ethyl]-28-norlup-20(29)-en-3-ol, 3-(Hydrogen 3,3-Dimethylpentanedioate), Bis(trifluoroacetate) Salt]	–	–	> 1000	> 1000
C=C(C)[C@@H]1CC[C@]2(CCNCCN3CCN(S(C)(=O)=O)CC3)CC[C@]3(C)[C@H](CC[C@@H]4[C@@]5(C)CC[C@H](OC(=O)CC(C)(C)C(=O)O)C(C)(C)[C@@H]5CC[C@]43C)[C@@H]12 [Compound 51ff, (3β)-17-[2-[[2-[4-(Methylsulfonyl)piperazin-1-yl]ethyl]amino]ethyl]-28-norlup-20(29)-en-3-ol, 3-(1-Hydrogen 2,2-Dimethylbutanedioate)]	49.8	54.4	> 1000	> 1000
C=C(C)[C@@H]1CC[C@]2(CCNCCN3CCN(Cc4ccccc4)CC3)CC[C@]3(C)[C@H](CC[C@@H]4[C@@]5(C)CC[C@H](OC(=O)CC(C)(C)C(=O)O)C(C)(C)[C@@H]5CC[C@]43C)[C@@H]12 [Compound 51hh, (3β)-17-[2-[[2-[4-(Phenylmethyl)piperazin-1-yl]ethyl]amino]ethyl]-28-norlup-20(29)-en-3-ol, 3-(1-Hydrogen 2,2-Dimethylbutanedioate)]	35.8	62.9	> 1000	> 1000
